These are literature values, as cited in patent publication US12471592B2, “Cytoprotective compositions for short-term cells storage and transportation without cryopreservation and deep freezing” (priority 2021, dated 2025).

In data set [1] the test system is ARPE 19 human retinal pigment epithelial cell line.
For data set [2], the system named is mouse morula. The settings on record: for minimum concentration giving significant reduction of mouse morula survival: 5 min of 25° C. exposure.
Data set [3] concerns vascular endothelial cells. Particulars: for increase of permeability: raising the temperature from 2-4° C. to 22° C.; for Permeability: vascular endothelial cells, 2-4° C.
Data set [4] has as its system vascular endothelial cells. Particulars: vitrifying concentrations, 2-4° C. for 9 min.
The subject of data set [5] is mouse blastocysts. Particulars: for blastocysts survived: 20% vol/vol CPAs for 40 min at room temperature; for blastocysts subsequently developed: 30% vol/vol CPAs for 10 min at room temperature.
Data set [6] has as its system Chinese hamster ovary cell lines.
For data set [7], the system named is fish oocytes.
The subject of data set [8] is endothelial cells. Particulars: reducing concentration from 3.0 M to 2.0 M.
Data set [9] concerns mouse oocytes. The settings on record: increasing molarity.
Data set [10] has as its system mouse zygotes.
For data set [11], the system named is rat heart rate.
The test system of data set [12] is Rat retina cells. Particulars: 24 hr exposure.
Data set [13] deals with fibroblasts. Particulars: 1% DMSO, within 5 sec.
The subject of data set [14] is rat myocardium.
Data set [15] has as its system bacteria. Particulars: 33% DMSO for 10 min.
[16] abbreviates: cytochrome P450 oxidation system added.

SMILES strings stand for the structures. Read-outs that look alike come from different tables or passages of the source. Bounds are passed on as bounds.

With `O=c1c(O)c(-c2ccc(O)c(O)c2)oc2cc(O)cc(O)c12` [quercetin], in [1] (compared with the control groups, 300 μM H2O2), the “level of ROS” value is on record as “decreased”. The cell viability entry in data set [1] (pretreated with quercetin (0.80 μM) before exposure to 300 μM H2O2) is on record as “preserved in quercetin group in a dose dependent manner, particularly at 20 μM”.

`OCCO` [EG, ethylene glycol]: the “minimum concentration giving significant reduction of mouse morula survival” value in data set [2] was 7 M. In addition, in data set [3], the increase of permeability entry is reported as “nine-fold” and the Permeability is on record as 2.0 cm/sec×10^−6. Further, the cell survival in [4] is on record as 33.2%. In addition, in data set [5], the blastocysts survived is 95.8% and the blastocysts subsequently developed was 74.6%. For the same compound, the chromosome damage entry in data set [6] (setting [16]) was “substantial chromosome damage”. Moreover, the chromosome damage result in [6] (without oxidation system) is reported as “No chromosome damage”.

As to `CO` [METH, methanol], in [7], the “concentrations resulting in protein damage or proteolysis” value was “above 6 M”. In [2] (10 min exposure), the “concentration showing reduced mouse morula survival” value is recorded as 6 M.

Turning to `OCC(O)CO` [GLY, glycerol], in data set [2], the “minimum concentration giving significant reduction of mouse morula survival” value is reported as 6 M. For the same compound, the blastocysts survived in data set [5] is listed as 81.7%.

`CC(O)C(C)O` (stereo not drawn) [BD, 2,3-butanediol]: in data set [3], the increase of permeability was 17 fold and the Permeability is reported as 4.1 cm/sec×10^−6. Further, the cell survival in data set [4] is given as 76.3%. In [8], the “factor by which endothelial cell loss was cut” value is given as 35. In addition, in data set [5], the blastocysts survived is 8.3% and the blastocysts subsequently developed is given as 8.7%.

As to `CC(O)CCO` (stereo not drawn) [1,3-butanediol], the blastocysts survived in data set [5] is listed as 64.2%.

Turning to `CC(O)CO` (stereo not drawn) [PG, propylene glycol], the “minimum concentration giving significant reduction of mouse morula survival” value in [2] is 4 M. In [3], the increase of permeability was 13 fold and the Permeability was 3.0 cm/sec×10^−6. Also, the cell survival in data set [4] is given as 63.6%. In addition, the “formaldehyde increase relative to DMSO or GLY” value in data set [9] was “more than 30 fold”. Also, in data set [5], the blastocysts survived was 87.5% and the blastocysts subsequently developed was 2.1%. The “concentration impairing the developmental potential of mouse zygotes by decreasing intracellular pH” value in data set [10] was more than 2.5 M. Besides, in [6] (without oxidation system), the chromosome damage result was “substantial chromosome damage”.

For the compound `C[S+](C)[O-]` [DMSO, dimethylsulfoxide], the “minimum concentration giving significant reduction of mouse morula survival” value in [2] is 5 M. In data set [3], the increase of permeability is given as 17 fold and the Permeability is 2.4 cm/sec×10^−6. Further, the cell survival in [4] is given as 37.0%. In addition, the “factor by which endothelial cell loss was cut” value in data set [8] is reported as 3. Besides, the “concentrations giving dose-dependent reduction in rat heart rate” value in data set [11] is “above 0.14 M”. Moreover, the “concentration at which apoptosis was exhibited” value in data set [12] is recorded as not below 0.1 % vol/vol. Also, in [5], the blastocysts survived is recorded as 96.7% and the blastocysts subsequently developed is recorded as 25.0%. For the same compound, the “increase of intracellular calcium” value in data set [13] is on record as “two- to six-fold”. The chromosome damage result in data set [6] (setting [16]) is “not”. For the same compound, the chromosome damage entry in data set [6] (without oxidation system) was “No chromosome damage”. Also, the “concentration giving irreversible ultrastructural alterations to rat myocardium” value in data set [14] (at 15° C.) is on record as “above 2.82 M”. Moreover, the “concentration giving irreversible ultrastructural alterations to rat myocardium” value in data set [14] (at 30° C.) is listed as “above 1.41 M”. Further, the increase in mutagenicity in data set [15] is listed as 10 fold.
